In assay [1] the target is T1, Rac1 (Homo sapiens, UniProt P63000). Kind of assay: Competitive binding assay, [3H]GDP-loaded Rho protein titrated with 6-TGDP (FIG. 16A). More on the design: made in house; host or cells: E. coli. How it is done: (§1) FIG. 16. Kinetic properties of RhoC with 6-TGDP in the presence or absence of a redox agent. All kinetic analyses are described elsewhere herein. (A) ^appKD values of Rac1, RhoA, RhoC, and RhoC C20S for 6-TGDP were estimated to be 7.9, 11.6, 11.8, and 11.2 μM, respectively. ^trueKD values of Rac1, RhoA, […] for 6-TGDP were then calculated to be 5.1, 10.8, 11.1, and 10.5 μM, respectively, by using a compensation equation, ^trueKD for 6-TGDP=^appKD for 6-TGDP/(1+[[^3H]GDP]/^trueKD for GDP) (Heo, J., and Hong, I. (2010) Biochemistry 49, 3965-3976), in conjunction with the values given. […] The GDP dissociation rates from RhoC C20S by NO, .NO2, and N2O3 were estimated to be 0.02×10^−3, 0.05×10^−3, and 0.04×10^−3 s^−1, respectively. […] (D) ^appKD values of RhoC for [^3H]GDP in the presence or absence of DTT were estimated to be 22.4 μM and […], respectively. ^appKD values of C20S RhoC for [^3H]GDP in the presence or absence of DTT were determined to be 24.8 μM and 25.2 μM, respectively. The regression values associated with these fits were >0.8595. All data points associated with vertical standard error bars shown in this figure are the mean values of triplicate measurements.
Transition metal-free assay buffer and vials as described in a previous study (Heo et al. Biochemistry 49, 3965-3976 (2010)) were used for all kinetic assays. The kinetic assay buffer contains the highest grade of 50 mM NaCl, 10 mM MgCl2, 1 mM EDTA, and 0.1 mM DTPA in 50 mM TrisHCl (pH 7.4). Before performance of any of the assays, all protein samples also were dialyzed with a metal-free buffer under anaerobic conditions. As with RhoA and Rac1 (Heo et al. J. Biol. Chem. 280, 31003-31010 (2005)), C20S RhoC were expressed in E. coli and purified using anionic and size exclusion columns.
(a) A competitive binding assay was performed to determine the binding affinity of Rho GTPase and 6-TGDP. The radiolabeled [^3H]GDP-loaded Rho protein (1 μM) was titrated with various concentrations of 6-TGDP. The titrated Rho protein sample then was spotted onto a nitrocellulose membrane. Each membrane was washed three times with the assay buffer, and radioactivity was determined using a Beckman-Coulter scintillation counter. The radioactivity of the sample (Rho protein-bound [^3H]GDP) was converted into, and thus plotted, as the fraction of mol GDP per mol total Rho protein. The apparent dissociation constant (^appKD) of the Rho protein with [^3H]GDP in the presence of 6-TGDP was determined by using Prism software to fit the titration curve to a hyperbola.

For assay [2], the target named is T1, Rac1. On the set-up: made in house; host or cells: E. coli. Conditions: known value (Morgan et al.); read-out: trueKD for GDP; cited from earlier work.
In assay [3] the target is T2, RhoC (Homo sapiens, UniProt P08134). The assay is described as follows: Titration of .NO2-treated RhoC-6-TGDP complex with [3H]GDP with/without DTT (FIG. 16D). The class given is binding. More on the design: made in house; host or cells: E. coli. The following applies: presence of DTT; .NO2-pretreated 6-TGDP-loaded RhoC; read-out: appKD for [3H]GDP. Here is the method: as §1, with “All data points associated with vertical standard error bars shown in this figure are the mean values of triplicate measurements.” left out
(§2) (d) The effect of .NO2 on the dissociation of 6-TGDP from RhoC was determined by treating the RhoC-6-TGDP complex titration with various concentrations of [^3H]GDP in the presence and absence of a reducing agent of either dithiothreitol (DTT) or β-mercaptoethanol. […]

Another assay deals with T3, C20S RhoC (Homo sapiens, UniProt P08134, C20S).
T3 construct: made in house; host or cells: E. coli
The assay is described as above. It counts as binding. Conditions: .NO2-treated 6-TGDP C20S RhoC complex, read-out: appKD for [3H]GDP. How it is done:
as §1, with “All data points associated with vertical standard error bars shown in this figure are the mean values of triplicate measurements.” left out
as §2

The next assay deals with Ras (Homo sapiens, UniProt P01112). The following applies: determined previously (Lenzen et al.; Heo et al.); read-out: trueKD GDP; cited from earlier work.
Assay [4] has as its target T2, RhoC. The assay is described as follows: RhoC expression (Western) and RhoC activity assay in cells. The class given is cell-based. On the set-up: endogenous in cells; host or cells: SUM149, SUM102, SW480, HCCLM3 (endogenous); HME-RhoC (transfected with wild type RhoC). Here is the method: FIG. 14. Determination of cell invasiveness in the presence and absence of thiopurines and/or redox agents. […] Western blot analysis representing the total expression of RhoC in these cells also is shown. (B) Experimental procedures for the determination of the time-dependent motility of cells using the QCM Cell Invasion Assay kit in the presence and absence of 6-TG and DETA/NO are described elsewhere herein.
Cells were lysed in an extraction buffer containing 50 mM NaCl, 5 mM MgCl2, 1 mM ethylenediaminetetraacetic acid (EDTA), 0.1 mM diethylenetriaminepentaacetic acid (DTPA), and 0.1% NP40 in 150 mM TrisHCl (pH 8.0). The content of […] RhoC in cells then was determined by using Western analysis that relies on a monoclonal anti-RhoC antibody (Biocompare, South San Francisco, Calif.). To determine RhoC activity, the colorimetric RhoA activation assay Biochem Kit (Cytoskeleton, Denver, Colo.) was used essentially as described in the previous study (Hall et al. Neoplasia 10, 797-803 (2008)) except that the RhoC specific antibody (vide supra), instead of the RhoA antibody included in the assay kit, was used for this analysis.

The test system of a further assay is SUM149 cells. Kind of assay: MTT cell viability and caspase-3/8 assays. The class given is cell-based, human. From the text:
FIG. 25. […] (B) Caspase-3/8 assay: the apoptotic activity of sample cells treated with the apoptotic inducer was set to be 100%, and other results were then expressed as normalized values against the mean value associated with the treatment with the apoptotic inducer. For both (A) and (B), all values represent the mean values and standard error values from triplicate measurements.

The values that follow come from patent publication US8729047B2, “Compositions for inhibiting redox-sensitive GTPases” (Board of Regents, The University of Texas System, priority 2010, dated 2014).

Structures are written as SMILES. Like-named read-outs stand apart in the source and are kept apart here.

T2 sequence (P08134 whole entry): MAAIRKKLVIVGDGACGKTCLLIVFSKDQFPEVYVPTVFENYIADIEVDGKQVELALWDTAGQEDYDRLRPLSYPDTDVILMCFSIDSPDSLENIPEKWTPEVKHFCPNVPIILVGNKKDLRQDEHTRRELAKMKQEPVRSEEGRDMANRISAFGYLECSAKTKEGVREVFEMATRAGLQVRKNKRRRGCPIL
T3 sequence (P08134 whole entry C20S): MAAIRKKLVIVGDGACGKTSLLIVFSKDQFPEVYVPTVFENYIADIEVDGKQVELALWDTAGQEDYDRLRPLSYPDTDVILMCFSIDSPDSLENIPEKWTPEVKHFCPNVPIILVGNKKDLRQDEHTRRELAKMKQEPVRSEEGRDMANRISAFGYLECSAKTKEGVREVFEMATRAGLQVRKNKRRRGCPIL
Sequence of Ras (P01112 whole entry): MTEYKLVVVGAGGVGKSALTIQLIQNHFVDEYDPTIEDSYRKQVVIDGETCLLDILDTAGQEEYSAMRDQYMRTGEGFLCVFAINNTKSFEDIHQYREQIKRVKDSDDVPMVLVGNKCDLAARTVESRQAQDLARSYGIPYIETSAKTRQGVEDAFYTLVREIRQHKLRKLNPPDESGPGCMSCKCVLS

In the case of `Nc1nc2c(ncn2[C@@H]2O[C@H](COP(=O)(O)OP(=O)(O)O)[C@@H](O)[C@H]2O)c(=S)[nH]1` [6-TGDP, 6-thioguanosine diphosphate], the Kd at Rac1 [1] ([3H]GDP-loaded Rho protein 1 μM titrated with 6-TGDP, read-out: appKD for 6-TGDP) was 7.9 µM; at Rac1 [1] (calculated by compensation equation, read-out: trueKD for 6-TGDP), 5.1 µM.
As to `Nc1nc2c(ncn2[C@@H]2O[C@H](COP(=O)(O)OP(=O)(O)O)[C@@H](O)[C@H]2O)c(=O)[nH]1` [GDP], the Kd on Rac1 [2] is 1.8 µM; on RhoC [3], 22.4 µM; on C20S RhoC (absence of DTT), 25.2 µM; on C20S RhoC (presence of DTT) it was 24.8 µM; on Ras it was 9 pM.
Regarding `Nc1nc2nc[nH]c2c(=S)[nH]1` [6-TG, 6-thioguanine], the “level of total RhoC expression” value at RhoC [4] (SUM149 and HME-RhoC cells, 6-TG three or more days) is “not changed”. Moreover, the RhoC activity result at RhoC [4] (SUM149 and HME-RhoC cells, both 6-TG and DETA/NO (or GSNO), three days) is recorded as “essentially no RhoC activity was detected”. Moreover, on RhoC [4] (SW480 and HCCLM3 cells, 6-TG and a NO donor, not shown), the “activity of RhoC” value is given as “drastically diminished”. Moreover, in the assay with SUM149 cells (6-TG), the “apoptotic effect (caspase, FIG. 25B)” value was “minimal”. The “viability and caspase activity” value in the assay on SUM149 cells (6-TG and DETA/NO, FIG. 25) was “minimally affected”. In addition, the “cell viability (MTT, FIG. 25A)” value in the assay with SUM149 cells (6-TG for 3 days) is recorded as “minimally affected”.
